Results on 36 compounds are retold here after patent publication US6093732A, “4-hydroxyquinoline-3-carboxamides and hydrazides as antiviral agents” (Pharmacia & Upjohn Company, priority 1998, dated 2000).

SMILES strings stand for the structures. Bounds are passed on as bounds.

The target in the experiment is T1, HCMV polymerase (Human cytomegalovirus, UniProt P08546).
T1 construct: made in house; host or cells: recombinant baculovirus-infected SF-9 cells
T1 sequence (P08546 whole entry): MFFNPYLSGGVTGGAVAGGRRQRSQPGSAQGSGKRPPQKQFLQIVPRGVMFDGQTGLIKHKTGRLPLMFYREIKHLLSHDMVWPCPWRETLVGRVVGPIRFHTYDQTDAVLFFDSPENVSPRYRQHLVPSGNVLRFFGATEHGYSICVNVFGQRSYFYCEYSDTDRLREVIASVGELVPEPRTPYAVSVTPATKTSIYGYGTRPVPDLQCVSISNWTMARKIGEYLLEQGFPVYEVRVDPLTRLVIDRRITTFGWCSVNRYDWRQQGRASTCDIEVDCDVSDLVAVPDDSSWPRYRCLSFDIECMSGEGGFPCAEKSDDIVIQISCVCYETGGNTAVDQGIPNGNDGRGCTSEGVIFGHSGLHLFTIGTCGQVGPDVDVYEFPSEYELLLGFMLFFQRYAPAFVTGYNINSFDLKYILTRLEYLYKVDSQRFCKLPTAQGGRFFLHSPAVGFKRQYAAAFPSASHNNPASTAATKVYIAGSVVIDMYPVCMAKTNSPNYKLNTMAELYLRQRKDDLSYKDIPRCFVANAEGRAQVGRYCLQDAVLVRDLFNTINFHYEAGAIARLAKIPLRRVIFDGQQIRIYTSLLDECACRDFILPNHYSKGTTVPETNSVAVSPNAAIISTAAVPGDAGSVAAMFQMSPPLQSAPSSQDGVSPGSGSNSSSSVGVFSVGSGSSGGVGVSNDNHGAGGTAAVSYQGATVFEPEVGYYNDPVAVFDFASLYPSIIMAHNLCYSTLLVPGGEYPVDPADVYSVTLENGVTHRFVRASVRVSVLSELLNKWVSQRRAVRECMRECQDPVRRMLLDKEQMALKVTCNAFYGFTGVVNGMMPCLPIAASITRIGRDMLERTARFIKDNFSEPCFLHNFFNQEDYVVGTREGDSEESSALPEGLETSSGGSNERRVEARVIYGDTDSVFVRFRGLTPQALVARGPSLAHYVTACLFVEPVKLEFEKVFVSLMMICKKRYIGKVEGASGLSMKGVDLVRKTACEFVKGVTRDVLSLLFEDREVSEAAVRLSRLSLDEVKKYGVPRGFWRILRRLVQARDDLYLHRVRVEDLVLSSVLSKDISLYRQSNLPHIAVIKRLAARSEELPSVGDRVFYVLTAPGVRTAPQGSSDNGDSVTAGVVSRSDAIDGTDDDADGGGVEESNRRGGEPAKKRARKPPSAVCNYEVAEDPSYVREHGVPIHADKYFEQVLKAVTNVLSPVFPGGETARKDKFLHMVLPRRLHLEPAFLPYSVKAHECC
Description: HCMV polymerase scintillation proximity assay (SPA), modified version. It is filed as biochemical. To be noted: CMV polymerase; Table 1; modified assay with 4.5 mM DTT, compounds in 100% DMSO; read-out: Antiviral Selective Polymerase IC50 Values, CMV. As for the experimental part: The HCMV polymerase assay is performed using a scintillation proximity assay (SPA) as described in several references, such as N. D. Cook, et al., Pharmaceutical Manufacturing International, pages 49-53 (1992); K. Takeuchi, Laboratory Practice, September issue (1992); U.S. Pat. No. 4,568,649 (1986); which are incorporated by reference herein. Reactions are performed in 96-well plates. The assay is conducted in 100 μl volume with 5.4 mM HEPES (pH 7.5), 11.7 mM KCl, 4.5 mM MgCl2, 0.36 mg/ml BSA, and 90 nM ^3 H-dTTP. Assays are run with and without CHAPS, (3-[(3-Cholamidopropyl)-dimethylammonio]-1-propane-sulfonate) at a final concentration of 2 mM. HCMV polymerase is diluted in enzyme dilution buffer containing 50% glycerol, 250 mM NaCl, 10 mM HEPES (pH 7.5), 100 μg/ml BSA, and 0.01% sodium azide. The HCMV polymerase, which is expressed in recombinant baculovirus-infected SF-9 cells and purified according to literature procedures, is added at 10% (or 10 μl) of the final reaction volume, i.e., 100 μl. Compounds are diluted in 50% DMSO and 10 μl are added to each well. Control wells contain an equivalent concentration of DMSO. Unless noted otherwise, reactions are initiated via the addition of 6 nM biotinylated poly(dA)-oligo(dT) template/primer to reaction mixtures containing the enzyme, substrate, and compounds of interest. Plates are incubated in a 25° C. or 37° C. H2 O bath and terminated via the addition of 40 μl/reaction of 0.5 M EDTA (pH 8) per well. Reactions are terminated within the time-frame during which substrate incorporation is linear and varied depending upon the enzyme and conditions used, i.e., 30 min. for HCMV polymerase. Ten μl of streptavidin-SPA beads (20 mg/ml in PBS/10% glycerol) are added following termination of the reaction. Plates are incubated 10 min. at 37° C., then equilibrated to room temperature, and counted on a Packard Topcount. Linear regressions are performed and IC50 's are calculated using computer software.
A modified version of the above HCMV polymerase assay is performed as described above, but with the following changes: Compounds are diluted in 100% DMSO until final dilution into assay buffer. In the previous assay, compounds are diluted in 50% DMSO. 4.5 mM dithiotherotol (DTT) is added to the polymerase buffer. […] Other viral polymerase assays are performed using procedures similar to those described above.
In general, IC50 refers to the concentration at which inhibition is half-maximal. For the compound `CN(CCS(=O)(=O)O)C(=O)CCCCCCC(=O)OCCCc1cc(F)c2ncc(C(=O)NCc3ccc(Cl)cc3)c(O)c2c1`, the IC50 is 11.5 µM.

For `CN(CCS(=O)(=O)O)C(=O)CCCCCCC(=O)OCC#Cc1ccc2ncc(C(=O)NCc3ccc(Cl)cc3)c(O)c2c1`, the IC50 stood at 16.5 µM. With `O=C(NCc1ccc(Cl)cc1)c1cnc2c(F)cc(O)cc2c1O` [Example 3, N-[(4-Chlorophenyl)methyl]-8-fluoro-4,6-dihydroxy-3-quinoline-carboxamide], the IC50 was found to be 24 µM. With `O=C(NCc1ccc(Cl)cc1)c1cnc2c(F)cc(Br)cc2c1O` [Example 4] the figure was 3.4 µM. The figure for `O=C(NCc1ccc(Cl)cc1)c1cnc2c(F)cc(I)cc2c1O` [Example 5, N-[(4-Chlorophenyl)methyl]-8-fluoro-4-hydroxy-6-iodo-3-quinolinecarboxamide] is 5.8 µM; for `O=C(NCc1ccc(Cl)cc1)c1cnc2cc(C(F)(F)F)cc(C(F)(F)F)c2c1O` [Example 8, N-[(4-Chlorophenyl)methyl]-4-hydroxy-5,7-bis(trifluoromethyl)-3-quinolinecarboxamide] it is 55.3 µM. The figure for `Cc1ccc2c(O)c(C(=O)NCc3ccc(Cl)cc3)cnc2c1` [Example 11, N-[(4-Chlorophenyl)methyl]-4-hydroxy-7-methyl-3-quinoline-carboxamide] is 21.2 µM; for `O=C(NCc1ccc(Cl)cc1)c1cnc2c(F)ccc(F)c2c1O` [Example 17, N-[(4-Chlorophenyl)methyl]-5,8-difluoro-4-hydroxy-3-quinolinecarboxamide] it is 3.3 µM. As to `O=C(NCc1ccc(Cl)cc1)c1cnc2c(F)c(F)ccc2c1O` [Example 18, N-[(4-Chlorophenyl)methyl]-7,8-difluoro-4-hydroxy-3-quinoline-carboxamide], the IC50 is less than 3.1 µM. With `COc1cccc2c(O)c(C(=O)NCc3ccc(Cl)cc3)cnc12` [Example 20, N-[(4-Chlorophenyl)methyl]-4-hydroxy-8-methoxy-3-quinoline-carboxamide] the figure was 6.5 µM; with `O=C(NCc1ccc(Cl)cc1)c1cnc2ccc(Cl)cc2c1O` [Example 21, 6-Chloro-N-[(4-chlorophenyl)methyl]-4-hydroxy-3-quinoline-carboxamide], 4.4 µM.

As for `Cc1ccc2ncc(C(=O)NCc3ccc(Cl)cc3)c(O)c2c1` [Example 22, N-[(4-Chlorophenyl)methyl]-4-hydroxy-6-methyl-3-quinoline-carboxamide], the IC50 amounted to 4 µM.

For `COc1ccc2ncc(C(=O)NCc3ccc(Cl)cc3)c(O)c2c1` [Example 23, N-[(4-Chlorophenyl)methyl]-4-hydroxy-6-methoxy-3-quinoline-carboxamide], the half-maximal inhibitory concentration (IC50) is 3.4 µM. `N#Cc1ccc2ncc(C(=O)NCc3ccc(Cl)cc3)c(O)c2c1` [Example 24, N-[(4-Chlorophenyl)methyl]-6-cyano-4-hydroxy-3-quinoline-carboxamide]: the IC50 worked out at 4.9 µM.

Take `CN(C)c1ccc2c(O)c(C(=O)NCc3ccc(Cl)cc3)cnc2c1` [Example 27, N-[(4-Chlorophenyl)methyl]-7-(dimethylamino)-4-hydroxy-3-quinolinecarboxamide]: the IC50 worked out at 16 µM.

As to `O=C(NCc1ccc(Cl)cc1)c1cnc2cc(NS(=O)(=O)c3ccccc3)ccc2c1O` [Example 33, N-[(4-Chlorophenyl)methyl]-4-hydroxy-7-[(phenylsulfonyl)-amino]-3-quinolinecarboxamide], the half-inhibitory concentration (IC50) was 24.3 µM. The figure for `O=C(NCc1ccc(Cl)cc1)c1cnc2cc(NS(=O)(=O)Cc3ccccc3)ccc2c1O` [Example 34, N-[(4-Chlorophenyl)methyl]-4-hydroxy-7-[[(phenylmethyl)-sulfonyl]amino]-3-quinolinecarboxamide] is 17.9 µM; for `O=C(NCc1ccc(Cl)cc1)c1cnc2cc(NS(=O)(=O)c3ccc(Cl)cc3)ccc2c1O` [Example 35, N-[(4-Chlorophenyl)methyl]-7-[[(4-chlorophenyl)sulfonyl]amino]-4-hydroxy-3-quinolinecarboxamide] it is 9.2 µM; for `O=C(NNc1ccc(Cl)cc1)c1cnc2c(F)cccc2c1O` [Example 36, 8-Fluoro-4-hydroxy-3-quinolinecarboxylic acid 2-(4-chlorophenyl) hydrazide] it is 7.8 µM. On to `Cc1cc(F)c2ncc(C(=O)NCc3ccc(Cl)cc3)c(O)c2c1` [Example 38, N-[(4-Chlorophenyl)methyl]-8-fluoro-4-hydroxy-6-methyl-3-quinolinecarboxamide], for which the half-inhibitory concentration (IC50) stood at 3.2 µM. Take `O=C(NCc1ccc(Cl)cc1)c1cnc2cc(I)ccc2c1O` [Example 39, N-[(4-Chlorophenyl)methyl]-4-hydroxy-7-iodo-3-quinolinecarboxamide]: the IC50 was less than 3.1 µM.

In the case of `O=C(NCc1ccc(Cl)cc1)c1cnc2ccc(I)cc2c1O` [Example 40, N-[(4-Chlorophenyl)methyl]-4-hydroxy-6-iodo-3-quinoline-carboxamide], the IC50 worked out at 3.5 µM.

Turning to `N#CCc1ccc2ncc(C(=O)NCc3ccc(Cl)cc3)c(O)c2c1` [Example 41, N-[(4-Chlorophenyl)methyl]-6-(cyanomethyl)-4-hydroxy-3-quinolinecarboxamide], the IC50 came out at 12.1 µM. The figure for `O=C(NCc1ccc(Cl)cc1)c1cnc2cccc(O)c2c1O` [Example 42, N-[(4-Chlorophenyl)methyl]-4,5-dihydroxy-3-quinolinecarboxamide] is 19.2 µM; for `O=C(NCc1ccc(Cl)cc1)c1cnc2c(Cl)c(Cl)ccc2c1O` [Example 43, 7,8-Dichloro-N-[(4-chlorophenyl)methyl]-4-hydroxy-3-quinolinecarboxamide] it is 1.3 µM; for `O=C(NCc1ccc(Cl)cc1)c1cnc2ccc(O)cc2c1O` [Example 44, N-[(4-Chlorophenyl)methyl]-4,6-dihydroxy-3-quinoline-carboxamide] it is 28.7 µM.

Turning to `O=C(NCc1ccc(Cl)cc1)c1cnc2c(O)cccc2c1O` [Example 45, N-[(4-Chlorophenyl)methyl]-4,8-dihydroxy-3-quinoline-carboxamide], the half-maximal inhibitory concentration (IC50) came out at 4.6 µM.

For the compound `O=C(NCc1ccc(Cl)cc1)c1cnc2c(Cl)cccc2c1O` [Example 46, 8-Chloro-N-[(4-chlorophenyl)methyl]-4-hydroxy-3-quinolinecarboxamide], the IC50 stood at 2.8 µM. As to `O=C(NCc1ccc(Cl)cc1)c1cnc2ccc(S(=O)(=O)Nc3ccnn3-c3ccccc3)cc2c1O` [Example 47, N-[(4-Chlorophenyl)methyl]-4-hydroxy-6-[[(1-phenyl-1H-pyrazol-5-yl)amino]sulfonyl]-3-quinolinecarboxamide], the IC50 was 39.7 µM. With `N#Cc1cccc2c(O)c(C(=O)NCc3ccc(Cl)cc3)cnc12` [Example 48, N-[(4-Chlorophenyl)methyl]-8-cyano-4-hydroxy-3-quinoline-carboxamide] the figure was 6.5 µM; with `O=C(NCc1ccc(Cl)cc1)c1cnc2c([N+](=O)[O-])cccc2c1O` [Example 49, N-[(4-Chlorophenyl)methyl]-4-hydroxy-8-nitro-3-quinoline-carboxamide], 3.7 µM.

Consider `Cc1c(N)ccc2c(O)c(C(=O)NCc3ccc(Cl)cc3)cnc12` [Example 50, 7-Amino-N-[(4-chlorophenyl)methyl]-4-hydroxy-8-methyl-3-quinolinecarboxamid], for which the IC50 is 6.9 µM. As for `N#Cc1cc(F)c2ncc(C(=O)NCc3ccc(Cl)cc3)c(O)c2c1` [Example 51, N-[(4-Chlorophenyl)methyl]-6-cyano-8-fluoro-4-hydroxy-3-quinolinecarboxamide], the IC50 turned out to be 12.2 µM. With `NC(=S)c1cc(F)c2ncc(C(=O)NCc3ccc(Cl)cc3)c(O)c2c1` [Example 52, 6-(Aminothioxomethyl)-N-[(4-chlorophenyl)methyl]-8-fluoro-4-hydroxy-3-quinolinecarboxamide] the figure was 11 µM. With `O=C(NNc1ccc(Cl)cc1)c1cnc2c(F)cc(I)cc2c1O` [Example 54, 8-Fluoro-4-hydroxy-6-iodo-3-quinolinecarboxylic acid 2-(4-chlorophenyl)hydrazide] the figure was 8.6 µM; with `Cc1cc(F)c2ncc(C(=O)NNc3ccc(Cl)cc3)c(O)c2c1` [Example 55, 8-Fluoro-4-hydroxy-6-methyl-3-quinolinecarboxylic acid 2-(4-chlorophenyl)hydrazide], 5 µM.
